Reference: US12370235B2, “Synthetic, non-natural antimicrobial peptides inspired by Staphylococcus auricularis delta toxin” (University of Saskatchewan, priority 2021, dated 2025)
Ends that are not written are not given here.

What was measured:
Kodamae ohmeri AR 396 = assay: MIC, YPD broth, CDC and FDA AR Candida isolate panel; format: cell-based; conditions: Table 9 below the line: only 200 or 100 μg/mL tested; values reported as 100 are ≤100 μg/mL
Method in brief: (§1)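 Medium: 10 g/L yeast extract, 20 g/L peptone, 20 g/L dextrose. Inoculum OD […]; peptides 95% purity, 2-fold series; overnight 37° C, standing.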

[1] = tested on: Candida haemulonii AR 393; assay: as above; format: cell-based; conditions: Table 9 below the line: only 200 or 100 μg/mL tested; values reported as 100 are ≤100 μg/mL
Method in brief: as §1

[2] = tested on: Candida haemulonii AR 395; assay: as above; format: cell-based; conditions: Table 9 below the line: only 200 or 100 μg/mL tested; values reported as 100 are ≤100 μg/mL
Method in brief: as §1

[3] = tested on: Saccharomyces cerevisiae AR 399; assay: as above; format: cell-based; conditions: Table 9 below the line: only 200 or 100 μg/mL tested; values reported as 100 are ≤100 μg/mL
Method in brief: as §1

[4] = tested on: Candida duobushaemulonii AR 391; assay: as above; format: cell-based; conditions: Table 9 below the line: only 200 or 100 μg/mL tested; values reported as 100 are ≤100 μg/mL
Method in brief: as §1

[5] = tested on: Candida lusitaniae AR 398; assay: as above; format: cell-based; conditions: Table 9 below the line: only 200 or 100 μg/mL tested; values reported as 100 are ≤100 μg/mL
Method in brief: as §1

[6] = tested on: Candida duobushaemulonii AR 392; assay: as above; format: cell-based; conditions: Table 9 below the line: only 200 or 100 μg/mL tested; values reported as 100 are ≤100 μg/mL
Method in brief: as §1

[7] = tested on: Candida duobushaemulonii AR 394; assay: as above; format: cell-based; conditions: Table 9 below the line: only 200 or 100 μg/mL tested; values reported as 100 are ≤100 μg/mL
Method in brief: as §1

[8] = tested on: Saccharomyces cerevisiae AR 400; assay: as above; format: cell-based; conditions: Table 9 below the line: only 200 or 100 μg/mL tested; values reported as 100 are ≤100 μg/mL
Method in brief: as §1

Candida krusei AR 397 = assay: as above; format: cell-based; conditions: Table 9 below the line: only 200 or 100 μg/mL tested; values reported as 100 are ≤100 μg/mL
Method in brief: as §1

[9] = tested on: Mannheimia haemolytica ATCC 33393; assay: MIC, broth dilution; format: cell-based; conditions: Table 11; highest concentration 25 μg/mL
Method in brief: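 Peptides (95% purity) in 2-fold dilution series were mixed with M. haemolytica diluted to OD 6×10^−4 in cation-adjusted Mueller Hinton broth and incubated standing overnight at 37 °C. MIC was the lowest concentration with no visible growth.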

[10] = tested on: S. aureus ATCC BAA-42 (MRSA SCCmec type VI); assay: MIC, broth dilution; format: cell-based, Staphylococcus aureus; conditions: Table 5; STIP3 variants, highest concentration 100 μg/mL
Method in brief: (§2)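 Peptides (95% purity) were serially diluted 2-fold and mixed with bacteria diluted to OD 6×10^−4 in cation-adjusted Mueller Hinton broth. Standing cultures were incubated overnight at 37° C. MIC was the lowest peptide concentration with no observed growth.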

[11] = tested on: S. aureus ATCC BAA-1683 (MRSA SCCmec type IV); assay: MIC, broth dilution; format: cell-based, Staphylococcus aureus; conditions: Table 5; STIP3 variants, highest concentration 100 μg/mL
Method in brief: as §2

[12] = tested on: S. aureus ATCC BAA-41 (MRSA SCCmec type II); assay: MIC, broth dilution; format: cell-based, Staphylococcus aureus; conditions: Table 5; STIP3 variants, highest concentration 100 μg/mL
Method in brief: as §2

[13] = tested on: S. aureus ATCC BAA-44 (MRSA SCCmec type I); assay: MIC, broth dilution; format: cell-based, Staphylococcus aureus; conditions: Table 5; STIP3 variants, highest concentration 100 μg/mL
Method in brief: as §2

[14] = tested on: S. aureus ATCC 33592 (MRSA SCCmec type III); assay: MIC, broth dilution; format: cell-based, Staphylococcus aureus; conditions: Table 5; STIP3 variants, highest concentration 100 μg/mL
Method in brief: as §2

[15] = tested on: S. aureus ATCC BAA-2313 (MRSA SCCmec type XI); assay: MIC, broth dilution; format: cell-based, Staphylococcus aureus; conditions: Table 5; STIP3 variants, highest concentration 100 μg/mL
Method in brief: as §2

S. aureus ATCC 29213 = assay: MIC, broth dilution; format: cell-based, Staphylococcus aureus; conditions: Table 5; STIP3 variants, highest concentration 100 μg/mL
Method in brief: as §2

[16] = tested on: S. aureus ATCC BAA-2094 (MRSA SCCmec type V); assay: MIC, broth dilution; format: cell-based, Staphylococcus aureus; conditions: Table 5; STIP3 variants, highest concentration 100 μg/mL
Method in brief: as §2

C. albicans Y537 = assay: MIC, YPD broth; format: cell-based, Candida albicans; conditions: Table 8
C. albicans MYA-2876 = assay: MIC, YPD broth; format: cell-based, Candida albicans; conditions: Table 8
Method in brief: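 Minimum inhibitory concentrations against Candida albicans were determined in YPD broth (10 g/L yeast extract, 20 g/L peptone, 20 g/L dextrose) using peptides of 95% purity. A 180 μl volume of diluted yeast was combined with 20 μl of peptide in a 2-fold dilution series in 96-well plates, with sterile water as control, then incubated standing overnight at 37° C.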

Sequence | MIC (μg/mL) Kodamae ohmeri AR 396 (Kodamae ohmeri AR 396) | MIC (μg/mL) Candida haemulonii AR 393 [1] | MIC (μg/mL) Candida haemulonii AR 395 [2] | MIC (μg/mL) Saccharomyces cerevisiae AR 399 [3] | MIC (μg/mL) Candida duobushaemulonii AR 391 [4] | MIC (μg/mL) Candida lusitaniae AR 398 [5] | MIC (μg/mL) Candida duobushaemulonii AR 392 [6] | MIC (μg/mL) Candida duobushaemulonii AR 394 [7] | MIC (μg/mL) Saccharomyces cerevisiae AR 400 [8] | MIC (μg/mL) Candida krusei AR 397 (Candida krusei AR 397) | MIC (μg/mL) M. haemolytica [9] | MIC S. aureus ATCC BAA 42 (VI) [10] | MIC S. aureus ATCC BAA 1683 (IV) [11] | MIC S. aureus ATCC BAA 41 (II) [12] | MIC S. aureus ATCC BAA 44 (I) [13] | MIC S. aureus ATCC 33592 (III) [14] | MIC S. aureus ATCC BAA 2313 (XI) [15] | MIC S. aureus ATCC 29213 (S. aureus ATCC 29213) | MIC S. aureus ATCC BAA 2094 (V) [16] | MIC C. albicans Y537 (C. albicans Y537) | also measured
TVKKLVKWILKTVKKFA [STIP3-18, TVKKLVKWILKTVKKFA] | > (values below the line were determined using two concentrations of peptide 200 or 100 μg/mL) | > (values below the line were determined using two concentrations of peptide 200 or 100 μg/mL) | > (values below the line were determined using two concentrations of peptide 200 or 100 μg/mL) | ≤ 100 µg/mL | ≤ 100 µg/mL | ≤ 100 µg/mL | ≤ 100 µg/mL | ≤ 100 µg/mL | ≤ 100 µg/mL | ≤ 100 µg/mL | 6.25 µg/mL | > (no inhibition was observed at the highest concentration of peptide tested: 100 μg/mL for the STIP3 variants) | > (no inhibition was observed at the highest concentration of peptide tested: 100 μg/mL for the STIP3 variants) | 100 µg/mL | 100 µg/mL | 100 µg/mL | > (no inhibition was observed at the highest concentration of peptide tested: 100 μg/mL for the STIP3 variants) | 100 µg/mL | 100 µg/mL | > (> symbol indicates that no inhibition was observed at the highest concentration of peptide tested: 100 μg/mL) | MIC C. albicans MYA-2876 (C. albicans MYA-2876): 50 µg/mL
TVRALVKWILRTVAKFA [STIP3-20, TVRALVKWILRTVAKFA] | > (values below the line were determined using two concentrations of peptide 200 or 100 μg/mL) | > (values below the line were determined using two concentrations of peptide 200 or 100 μg/mL) | > (values below the line were determined using two concentrations of peptide 200 or 100 μg/mL) | > (values below the line were determined using two concentrations of peptide 200 or 100 μg/mL) | > (values below the line were determined using two concentrations of peptide 200 or 100 μg/mL) | > (values below the line were determined using two concentrations of peptide 200 or 100 μg/mL) | > (values below the line were determined using two concentrations of peptide 200 or 100 μg/mL) | > (values below the line were determined using two concentrations of peptide 200 or 100 μg/mL) | 200 µg/mL | > (values below the line were determined using two concentrations of peptide 200 or 100 μg/mL) | 25 µg/mL | 25 µg/mL | 25 µg/mL | 12.5 µg/mL | 25 µg/mL | 25 µg/mL | 50 µg/mL | 25 µg/mL | 25 µg/mL | > (> symbol indicates that no inhibition was observed at the highest concentration of peptide tested: 100 μg/mL) | MIC C. albicans MYA-2876 (C. albicans MYA-2876): > (> symbol indicates that no inhibition was observed at the highest concentration of peptide tested: 100 μg/mL)
